Assay results: publication PMC12299168 (Pharmaceutics, 2025)
Like-named read-outs stand apart in the source and are kept apart here.

Legend:
[1] = system: flare and wheal suppression; settings: children aged 6–11 years; cited from earlier work
[2] = Hydrolysis of prodrugs in rat plasma; type: in vitro ADME; settings: 37 °C, during 6 h
Description: First, 100 μL of stock solution was added to 3.9 mL of heparinized rat plasma (n = 3). The samples were incubated at 37 °C in a shaking chamber (100 rpm). At 0, 1, 2, 4, 6 and 24 h, the aliquot (100 μL) was collected, and then immediately diluted 10-fold with a solvent composed of Acetonitrile:DW = 90:10 (v/v) to precipitate the protein. An equal volume of fresh rat plasma was replenished after each sampling. The samples were centrifuged at 5000 rpm for 10 min and the supernatants were filtered through a double 0.45 μm PTFE syringe filter. The filtrates were analyzed for their prodrug and LCZ content by HPLC to determine the conversion of the prodrug to LCZ.
(§1) Esterase, plasma hydrolysis and chemical stability studies were performed using the HPLC method. The HPLC equipment used was Infinity 1260 (Agilent, CA) fitted with a quaternary pump, an autosampler, a UV detector set at a wavelength of 230 nm and a column compartment maintained at 20 °C. The sample was eluted from a Fortis C18 (150 × 4.6 mm, 5 μm particle size) (Fortis, Neston, UK) analytical column using Acetonitrile:distilled water:sulfuric acid (90:9.6:0.4, v/v). The mobile phase was pumped isocratically at a flow rate of 1 mL/min with a 20 μL injection volume.

[3] = system: porcine liver esterase (PLE); assay: Hydrolysis of prodrug in porcine liver esterase (PLE); type: in vitro ADME; settings: for first-order rate constant (kobs): during 6 h; for half-life at 0.25 mg/mL (LCZ 2HCl Eq.): pig, porcine liver esterase (PLE) solution, 10% DMSO, 37 °C, read-out: T1/2 (time required for 50% degradation of prodrug) (converted)
Description: The ester bond cleavage assay was adapted from reference, with minor modifications, and carried out using PLE to evaluate the hydrolytic ratio (n = 3). […] At 0, 1, 2, 4, 6 and 24 h, the aliquot (100 μL) was collected using a 28 G syringe, and then immediately diluted 10-fold with a solvent composed of Acetonitrile:DW = 90:10 (v/v) to stop enzymatic action. The elution was replenished with an equal concentration and volume of fresh esterase solution. The diluted samples were filtered through a double 0.45 μm PTFE syringe filter. The filtrates were analyzed for their prodrug and LCZ content by HPLC to determine the conversion of the prodrug to LCZ.
as §1

SMILES | EC50 for flare suppression [1] [ng/mL] | EC50 for wheal suppression [1] [ng/mL] | first-order rate constant (kobs) [2] [h⁻¹] | first-order rate constant (kobs) ([3]; PLE 0.2 units/mL) [h⁻¹] | first-order rate constant (kobs) ([3]; PLE 0.5 units/mL) [h⁻¹] | first-order rate constant (kobs) ([3]; PLE 2.0 units/mL) [h⁻¹] | half-life at 0.25 mg/mL (LCZ 2HCl Eq.) ([3]; PLE 0.2 unit/mL) [h] | half-life at 0.25 mg/mL (LCZ 2HCl Eq.) ([3]; PLE 0.5 unit/mL) [h] | half-life at 0.25 mg/mL (LCZ 2HCl Eq.) ([3]; PLE 2.0 unit/mL) [h]
O=C(O)COCCN1CCN([C@H](c2ccccc2)c2ccc(Cl)cc2)CC1 [LCZ, Levocetirizine] | 1.4 ± 0.1 | 16.1 ± 2.2 |  |  |  |  |  |  | 
CCCCCCCCCCOC(=O)COCCN1CCN([C@@H](c2ccccc2)c2ccc(Cl)cc2)CC1 [LCZ-D, Levocetirizine decanoate] |  |  | 0.229 | 0.201 | 0.253 | 0.580 | 4 | 3 | ~1
CCCCCCCCCCCCOC(=O)COCCN1CCN([C@@H](c2ccccc2)c2ccc(Cl)cc2)CC1 [LCZ-L, Levocetirizine laurate] |  |  | 0.157 | 0.127 | 0.165 | 0.498 | 5 | 4 | ~2
